# Measured values reported in patent US12188947B2, “Marker for diagnosing atherosclerosis severity, and diagnostic method using same” (EWHA UNIVERSITY—INDUSTRY COLLABORATION FOUNDATION, priority 2018, dated 2025).
# Where no end group is shown, it is not given here.
# Assay: Metabolic phenotype (body weight, metabolic organ weights) after LGI3 antagonist peptide injection
# Assay type: in vivo, mouse
# Description: LGI3 P34, made with a mouse LGI3 antagonist peptide, is a 15mer synthetic peptide containing amino acids (aa) […] (DEGRQKFVRFQELAV (SEQ ID NO:3)) of mouse Lgi3. The synthetic LGI3 peptide was dissolved in PBS and sterilized by filtration. PBS injection was used as a control for mouse experiments. All peptides were synthesized by Peptron (Seoul, Korea). Apoe^−/− mice fed a high fat diet for 16 weeks were intraperitoneally injected with PBS or the LGI3 antagonist peptide twice a week for the last 5 weeks.
# Statistical analysis was performed using InStat. A two-sided Mann-Whitney U-test was used for comparison between two groups, and one-way ANOVA was used for comparisons among three or more groups. All data is presented as mean s.e.m, and P-values of ≤0.05 were considered statistically significant.
sequence,measurement,setting,value
"DEGRQKFVRFQELAV [LGI3 P34, DEGRQKFVRFQELAV]",epididymal fat weight,"Apoe −/− mice, high fat diet 16 weeks, intraperitoneal injection for the last 5 weeks, n=9, PBS control 1.689±0.43, P=0.84",1.58±0.51%
same,body weight,"Apoe −/− mice, high fat diet 16 weeks, intraperitoneal injection for the last 5 weeks, n=9, PBS control 39.22±3.51, P=0.536",38.08 ± 2.19 g
same,metabolic phenotype (in words),"body weight, WAT, spleen and liver weight to body weight versus control mice, FIG. 6",not changed
